Publication PMC10510246, “Inhibitory effect of O-propargyllawsone in A549 lung adenocarcinoma cells” (BMC Complementary Medicine and Therapies, 2023)
pIC50: −log10 of the molar value. Counter-ions that a name gives are not always drawn. Like-named read-outs stand apart in the source and are kept apart here. Values belong to the compound of their own block, whether it stands above or below them.

What was measured:
[1] = tested on: A549 cells; test: Clonogenic assay; type: cell-based; details: Homo sapiens, 72 h treatment, read-out: inhibition of colony formation
Experimental: A549 cells were seeded in a 6-well plate at a density of 150 cells/well and incubated in an incubator with 5% CO2 atmosphere at 37 °C. After 24 h, cells were treated with the compound 1 at concentrations of 1.1, 2.2 and 4.4 µM for 72 h. Dimethyl sulfoxide 0.02% and Doxorubicin 0.2 μM were used as negative control and positive control respectively. The treatment was removed and replaced with a supplemented DMEM medium. The cells were incubated in an atmosphere of 5% CO2 at 37 °C. After 6 days, cells were fixed with methanol + acetic acid (3:1) for 5 min and stained with 0.5% crystal violet in water for 30 min. The plates were photographed, and the images were analyzed using ImageJ 1.46 software.

[2] = tested on: C6 cells; test: Giemsa staining, morphological changes, C6; type: cell-based; details: 24 h
Experimental: (§1) A549, B16-F10 and C6 cells were seeded on coverslips in 24-well plates at a density of 2 × 10^4 cells/well. After 24 h, cells were treated with the compound 1 derivative using 1.1, 2.2 and 4.4 μM for A549 and C6, and 0.75, 1.5 and 3 µM for B16-F10 for 24 h. After treatment, cells were washed twice with phosphate-buffered saline (PBS) and fixed with methyl alcohol for 3 min. Then cells were stained with Giemsa for 1 min. The slides were evaluated under an optical microscope (Olympus) and the images were captured at 400 × magnification.

[3] = tested on: glioma (C6) cells; test: Sulforhodamine B (SRB) cell growth inhibition assay, C6; type: cell-based; details: for pIC50: C6, SRB, 72 h, value (95% confidence interval), read-out: IC50 (maximum 50% inhibitory concentration of cell growth)
Experimental: (§2) The cell lines of lung adenocarcinoma (A549), melanoma (B16-F10) and glioma (C6) were purchased from the Federal University of Rio de Janeiro. Cells were maintained in cell culture flasks in Dulbeccos's Modified Eagle Medium (DMEM) supplemented with 10% Fetal Bovine Serum (FBS) and 1% antibiotic (10,000 U/mL penicillin; […] streptomycin) and incubated at 37 °C in an atmosphere of 5% CO2. After reaching the necessary confluence for carrying out the experiments, the medium was removed, and the cells detached from the bottle using a 0.25% Trypsin–EDTA solution for a period of 1 to 15 min. After this step, the Trypsin–EDTA solution was inactivated with culture medium and the cells were centrifuged, with rotation of 153 G for 10 min at 4 °C. The pellet formed was resuspended in culture medium and the cells were counted in a Neubauer chamber to carry out the experiments.
(§3) For this experiment, A549, B16-F10 and C6 cells were seeded in 96-well plates at a density of 1 × 10^4 cells/well. After an incubation period of 24 h in a humidified incubator at 37 °C with 5% CO2 atmosphere for adhesion, the cells were treated with lawsone and lawsone derivatives (compounds 1, 2 and 3) for 72 h with concentrations from 25 µM to 0.8 µM. Cells were fixed with 100 μL of 30% trichloroacetic acid for 1 h in a refrigerator at 4 °C. Then, the plate was washed 4 times with water and set to dry. After the drying period, 100 μL of 0.057% Sulforhodamine B (SRB) solution (w/v) dissolved in 1% acetic acid was added for 30 min at room temperature. Then the plate was washed 4 times with 1% acetic acid to remove excess dye. After drying, 200 μL of TRIS 10 mM pH 10.5 was added to dilute the SRB for 30 min. The reading was made in a spectrophotometer (Biotek—H1 Synergy) with a wavelength of 510 nm.
(§4) Based on the inhibitory degree of the derivatives, the IC50 of the compounds were calculated. The IC50 is the concentration capable of inhibiting 50% of cell growth. The compound that presented the lowest IC50 was compound 1, being selected for evaluation in the following experiments. For this, IC50 values were used as a basis to define concentrations of half of the IC50, the IC50 value and twice the IC50.

[4] = tested on: melanoma (B16-F10) cells; test: Sulforhodamine B (SRB) cell growth inhibition assay, B16-F10; type: cell-based; details: for pIC50: B16-F10, SRB, 72 h, value (95% confidence interval), read-out: IC50 (maximum 50% inhibitory concentration of cell growth)
Experimental: as §2, §3, §4

[5] = tested on: A549 cells; test: Wound-healing assay (cell migration); type: cell-based; details: for wound closure: A549, 4.4 µM
Experimental: A549 cells were seeded in a 12-well plate at a density of 4 × 10^5 cells/well and incubated in an incubator with 5% CO2 atmosphere at 37 °C for 24 h. After the incubation period, a straight-line wound was made with the aid of a p200 tip, the supernatant was discarded, and the wells were washed twice with 1 × PBS to remove loose cells. Cells were treated with compound 1 at concentrations of 1.1, 2.2 and 4.4 µM. 0.02% Dimethyl sulfoxide and 0.2 μM Doxorubicin were used as a negative control and positive control, respectively. Images of wound closure were acquired at 0, 24 and 48 h of treatment with an Olympus microscope. The images were analyzed using the ImageJ software version 1.46.

[6] = tested on: lung adenocarcinoma (A549) cells; test: Sulforhodamine B (SRB) cell growth inhibition assay, A549; type: cell-based; details: for pIC50: A549, SRB, 72 h, value (95% confidence interval), read-out: IC50 (maximum 50% inhibitory concentration of cell growth)
Experimental: as §2, §3, §4

[7] = tested on: A549 cells; test: Annexin V-FITC/PI assay (flow cytometry); type: cell-based; details: 24 h
Experimental: A549 cells were seeded in 12-well plates in DMEM medium supplemented with FBS and 1% antibiotic (10,000 U/ml penicillin; […] streptomycin) with a density equal to 2 × 10^5 cells/well and incubated for 24 h. Then, the cells were treated with the compound 1 at concentrations of 1.1, 2.2 and 4.4 µM, for 24 h. Dimethyl sulfoxide 0.02% was used as negative control and 0.2 μM Doxorubicin were used as positive control. After treatment, cells were detached with Accutase solution, transferred to tubes, and washed with PBS. After washing the cells were stained with Annexin V-FITC/PI according to the manufacturer. Samples were analyzed by flow cytometry (Attune NxT Acoustic Focusing Cytometer, Thermo Fisher Scientific). Cells without labeling were considered viable, cells positive only for Annexin V/FITC were considered cells in apoptosis, cells with double labeling for Annexin V/FITC and propidium iodide were considered cells in late apoptosis and cells positive only for iodide propidium were considered cells in necrosis.

[8] = tested on: human erythrocytes; test: Hemolytic assay; type: cell-based
Experimental: (§5) The hemolytic activity of the compound 1 was tested using human erythrocytes from healthy volunteers. […] Triton X 100 (0.1%) and Dimethyl sulfoxide (0.1%) were used as positive and negative hemolysis controls, respectively. Erythrocytes were kept under agitation at a temperature of 37 °C for 1 h. After this time, the plate was centrifuged at 405 × g for 5 min and 0.15 mL of the transferred supernatant was read in a spectrophotometer (Biotek—H1 Synergy) with an absorbance of 540 nm.

[9] = Hemolytic assay; type: cell-based, human; details: human erythrocytes (2% suspension); human erythrocytes, 110 µM, 1 h; read-out: hemolysis percentage
Experimental: as §5

[10] = tested on: A549 cells; test: Giemsa staining, morphological changes, A549; type: cell-based; details: A549, 2.2 and 4.4 μM, 24 h
Experimental: as §1

[11] = tested on: B16-F10 cells; test: Giemsa staining, morphological changes, B16-F10; type: cell-based; details: 24 h
Experimental: as §1

Structure (SMILES): C#CCOC1=CC(=O)c2ccccc2C1=O [Compound 1, O-propargyllawsone]
- inhibition at 1.1 µM ([1]; A549, 1.1 µM, compared to the negative control): 31.1%
- inhibition at 2.2 µM ([1]; A549, 2.2 µM, compared to the negative control): 82.1%
- inhibition at 4.4 µM ([1]; A549, 4.4 µM, compared to the negative control): 98.1%
- morphological changes (Giemsa) ([2]; C6, 1.1 µM): reduced cytoplasmic volume and the appearance of apoptotic cells
- morphological changes (Giemsa) ([2]; C6, 2.2 and 4.4 μM): reduction in cytoplasm and apoptotic cells
- growth inhibition category ([3]; C6, 72 h, concentrations from 25 to 6.3 µM): high (high inhibition when above 75%)
- pIC50 [3]: 5.66
- pIC50 ([3]; Rattus norvegicus, C6, 72 h): > 5.66
- growth inhibition category ([4]; B16-F10, 72 h, concentrations from 25 to 6.3 µM): high (high inhibition when above 75%)
- pIC50 [4]: 5.82
- pIC50 ([4]; Mus musculus, B16-F10, 72 h): > 5.66
- effect on cell migration ([5]; A549, 1.1 µM, 24 or 48 h): no significant reduction of migration
- reduction of wound closure ([5]; A549, 2.2 µM, 48 h): 33%
- wound closure ([5]; 24 h): 18%
- wound closure ([5]; 48 h): 56%
- growth inhibition category ([6]; A549, 72 h, concentrations from 25 to 6.3 µM): high (high inhibition when above 75%)
- pIC50 [6]: 5.66
- pIC50 ([6]; Homo sapiens, A549, 72 h): > 5.60
- inhibitory potential relative to lawsone ([6]; compared with lawsone IC50, cell line not specified): at least 10 times
- changes in the percentage of living, apoptotic or necrotic cells ([7]; A549, 1.1 µM and 2.2 µM): not able to induce significant changes
- cells undergoing apoptosis ([7]; A549, 4.4 µM): 47.8%
- cells undergoing necrosis ([7]; A549, 4.4 µM): 39.7%
- percentage of living cells ([7]; A549, 4.4 µM): 12.4%
- toxicity to erythrocytes ([8]; highest concentration tested of 110 µM): not toxic to erythrocytes
- hemolytic effect ([8]; human erythrocytes, 13.75, 27.5 and 55 µM, 1 h): no hemolytic effect
- hemolysis at 1 h, 110 µM [9]: < 0.5%
- morphological changes (Giemsa) [10]: reduction in cytoplasm and apoptotic cells
- morphological changes (Giemsa) ([11]; B16-F10, 0.75 µM): reduced cytoplasmic volume and the appearance of apoptotic cells
- morphological changes (Giemsa) ([11]; B16-F10, 1.5 and 3 µM): reduction in cytoplasm and apoptotic cells

Structure (SMILES): O=C1C=C(OCc2cn(-c3ccccc3)nn2)C(=O)c2ccccc21 [Compound 2]
- growth inhibition category ([3]; C6, 72 h, concentrations 12.5 to 0.8 µM): low (low when below 50%)
- pIC50 ([3]; listed as compound 2): < 4.85
- pIC50 [3]: 4.36
- growth inhibition category ([4]; B16-F10, 72 h, concentrations 12.5 to 0.8 µM): low (low when below 50%)
- pIC50 [4]: 4.85
- pIC50 ([4]; Mus musculus, B16-F10, 72 h): < 4.85
- inhibition at 25 µM ([4]; Mus musculus, B16-F10, 72 h, 25 µM, read-out: growth inhibition category): 50 to 75%
- growth inhibition category ([6]; A549, 72 h, concentrations 12.5 to 0.8 µM): low (low when below 50%)
- pIC50 [6]: 4.83
- pIC50 ([6]; Homo sapiens, A549, 72 h): < 4.85
- inhibition at 25 µM ([6]; Homo sapiens, A549, 72 h, 25 µM, read-out: growth inhibition category): 50 to 75%

Structure (SMILES): O=C1C=C(OCc2cn(-c3ccc(Cl)cc3)nn2)C(=O)c2ccccc21 [Compound 3]
- growth inhibition category ([3]; C6, 72 h, all concentrations tested (25 µM to 0.8 µM)): low (low when below 50%)
- growth inhibition category ([4]; B16-F10, 72 h, all concentrations tested (25 µM to 0.8 µM)): low (low when below 50%)
- growth inhibition category ([6]; A549, 72 h, all concentrations tested (25 µM to 0.8 µM)): low (low when below 50%)

The next lines start with results.

- pIC50 ([4]; listed as Doxorrubicin): 6.22
- pIC50 ([4]; Mus musculus, B16-F10, 72 h): > 6.22
- pIC50 [6]: > 6.22
Structure (SMILES): COc1cccc2c1C(=O)c1c(O)c3c(c(O)c1C2=O)C[C@@](O)(C(=O)CO)C[C@@H]3O[C@H]1C[C@H](N)[C@H](O)[C@H](C)O1 [Doxorubicin, Doxorubicin Hydrochloride, reference compound]
- inhibition at 0.2 µM ([1]; A549, 0.2 μM (positive control)): 96.1%
- wound closure (wound restored) ([5]; A549, 0.2 μM (positive control), 48 h): 78%
- changes in the percentage of living, apoptotic or necrotic cells ([7]; A549, 0.2 µM): not possible to observe changes

- pIC50 ([3]; Rattus norvegicus, C6, 72 h): 4.65
- pIC50 ([6]; Homo sapiens, A549, 72 h): 4.28
Structure (SMILES): O=C1C=C(O)C(=O)c2ccccc21 [Lawsone, 2-hydroxy-1,4-naphtoquinone]
